How the values were obtained:
[1] = tested on: colitis model administered with dextran sulfate sodium (DSS); assay: DSS colitis model mouse, length of the large intestine; assay type: in vivo; conditions: 2.5 w/v % DSS drinking water, 50 mg/kg intraperitoneally every 24 hr, day 8, vs 0.5% MC, FIG. 3
Method: Colitis model administered with dextran sulfate sodium (DSS) (manufactured by FUJIFILM Wako Pure Chemical Corporation) was produced as described below. The length of the large intestine is used as a morphological parameter in the evaluation of colitis, and the large intestine shortens according to the degree of inflammation. Therefore, the anti-inflammatory effect of the compound was evaluated by comparing the length of the large intestine.
Compound K-1:J-1 was prepared as a 0.5 w/v % methylcellulose aqueous solution (0.5% MC, manufactured by FUJIFILM Wako Pure Chemical Corporation) at 5 mg/mL and intraperitoneally administered at 50 mg/kg per administration. 0.5% MC was administered to the negative control.
As the mouse, male C57BL/6NCrl, 6-week-old, was purchased from CHARLES RIVER LABORATORIES JAPAN, INC. As drinking water, distilled water or a 2.5 w/v % DSS aqueous solution was freely given. The DSS drinking start date was set as day 1, and the water was given until day 8. Compound K-1:J-1 was intraperitoneally administered at 50 mg/kg every 24 hr from day 1. On day 8, the mouse was dissected, the large intestine was isolated and the length of the large intestine was measured. Conducted in 4 cases in each group.

[2] = tested on: full-thickness skin wound; assay: Mouse full-thickness skin wound model; assay type: in vivo; conditions: 1 mg/mL, 0.04 mL per wound site every 24 hr until day 12, negative control 854.2±119.2
Method: A full-thickness skin wound in which the skin on the back of a mouse was partially removed was prepared as described below, and the wound therapy promoting effect of the compound was evaluated by comparing the reduction rate of the wound area.
Compound K-1:J-1 was dissolved in a solvent (10% Pluronic F-68, 2% Propylene Glycol, 20 mM Tris buffer (pH 8.5)) at a concentration of 1 mg/mL, and administered by adding dropwise to the wound site (0.04 mL per one wound site). To the negative control, the solvent alone was administered by dropwise addition.
As the mouse, male BKS.Cg-Dock7m+/+Leprdb/J, 7-week-old, was purchased from CHARLES RIVER LABORATORIES JAPAN, INC. After removing the hair on the back, an 8 mm full-thickness skin wound was prepared using biopsy trepan (Kai Corporation) and protected with a coating material (Tegaderm transparent dressing, 3M). The wound preparation date was set as day 1, and 1 mg/mL compound K-1:J-1 was added dropwise at a dose of 0.04 mL per wound site every 24 hr until day 12. The area of the wound site was measured on days 1, 3, 6, 9, 13. The wound area on day 1 was set to 100%, and the total measured area was calculated as a percentage (%) with respect to the wound preparation date. Conducted in 6 cases in each group.

CC/C(=N\NC(=O)NCc1cccc(O)c1)c1ccc(O)c(C)c1O [k-1:J-1]
length of the large intestine [1]: shortening of the large intestine was suppressed more | area under the wound area ratio (Area Under the Curve (AUC)) [2]: 659.6±163.7 %×day
